Laboratory results published in paper PMC9917560, “Design, Synthesis and Antimicrobial Evaluation of New N-(1-Hydroxy-1,3-dihydrobenzo[c][1,2]oxaborol-6-yl)(hetero)aryl-2-carboxamides as Potential Inhibitors of Mycobacterial Leucyl-tRNA Synthetase” (International Journal of Molecular Sciences, 2023).
Converted amounts (≈) assume the structure as drawn. Like-named read-outs stand apart in the source and are kept apart here.

Experiments:
[1] = tested on: Enterococcus faecalis CCM 4224 (ATCC 29212); experiment: Antibacterial microdilution broth (EUCAST); format: cell-based; conditions: read-out: MIC Enterococcus faecalis
[2] = tested on: Mycobacterium tuberculosis H37Rv CNCTC My 331/88 (ATCC 27294); experiment: Microplate Alamar Blue assay vs Mtb H37Rv; format: cell-based; conditions: Mycobacterium tuberculosis
[3] = tested on: Candida tropicalis CCM 8264 (ATCC 750); experiment: Antifungal microdilution broth (EUCAST); format: cell-based; conditions: read-out: MIC Candida tropicalis
[4] = tested on: Acinetobacter baumannii DSM 30007 (ATCC 19606); experiment: Antibacterial microdilution broth (EUCAST); format: cell-based; conditions: read-out: MIC Acinetobacter baumannii
[5] = tested on: Candida parapsilosis CCM 8260 (ATCC 22019); experiment: Antifungal microdilution broth (EUCAST); format: cell-based; conditions: Lodderomyces parapsilosis, read-out: MIC Candida parapsilosis
[6] = tested on: Candida krusei CCM 8271 (ATCC 6258); experiment: Antifungal microdilution broth (EUCAST); format: cell-based; conditions: Pichia kudriavzevii, read-out: MIC Candida krusei
[7] = tested on: Staphylococcus aureus subsp. aureus CCM 4223 (ATCC 29213); experiment: Antibacterial microdilution broth (EUCAST); format: cell-based; conditions: read-out: MIC Staphylococcus aureus subsp. aureus
[8] = tested on: Mycolicibacterium smegmatis DSM 43,465 (ATCC 607); experiment: Antimycobacterial microdilution (resazurin) vs M. smegmatis; format: cell-based; conditions: Middlebrook 7H9, resazurin, read-out: MIC M. smeg.
[9] = tested on: Staphylococcus epidermidis CCM 4418 (ATCC 12228); experiment: Antibacterial microdilution broth (EUCAST); format: cell-based; conditions: read-out: MIC Staphylococcus epidermidis
[10] = tested on: methicillin-resistant Staphylococcus aureus subsp. aureus (MRSA) CCM 4750 (ATCC 43300); experiment: microbe, parasite or virus in culture; format: cell-based; conditions: read-out: MIC Methicillin-resistant Staphylococcus aureus subsp. aureus
HepG2 cell line = experiment: Cytotoxicity screening, CellTiter 96 assay; conditions: Homo sapiens, HepG2, 24 h, read-out: IC50 HepG2
[11] = tested on: Escherichia coli CCM 3954 (ATCC 25922); experiment: Antibacterial microdilution broth (EUCAST); format: cell-based; conditions: for MIC: Escherichia coli, read-out: MIC Escherichia coli
[12] = tested on: Klebsiella pneumoniae CCM 4415 (ATCC 10031); experiment: Antibacterial microdilution broth (EUCAST); format: cell-based; conditions: for MIC: Klebsiella pneumoniae, read-out: MIC Klebsiella pneumoniae
[13] = tested on: Pseudomonas aeruginosa CCM 3955 (ATCC 27853); experiment: Antibacterial microdilution broth (EUCAST); format: cell-based; conditions: read-out: MIC Pseudomonas aeruginosa
[14] = tested on: Trichophyton interdigitale CCM 8377 (ATCC 9533); experiment: Antifungal microdilution broth (EUCAST); format: cell-based; conditions: Trichophyton interdigitale, read-out: MIC Trichophyton interdigitale
[15] = tested on: Candida albicans CCM 8320 (ATCC 24433); experiment: Antifungal microdilution broth (EUCAST); format: cell-based; conditions: Candida albicans, read-out: MIC Candida albicans
[16] = tested on: Aspergillus flavus CCM 8363; experiment: Antifungal microdilution broth (EUCAST); format: cell-based; conditions: Aspergillus flavus, CCM8363, read-out: MIC Aspergillus flavus
[17] = tested on: Mycobacterium avium DSM 44,156 (ATCC 25291); experiment: Antimycobacterial microdilution (resazurin) vs M. avium; format: cell-based; conditions: Mycobacterium avium, Middlebrook 7H9, resazurin; read-out: MIC M. avium
[18] = tested on: Aspergillus fumigatus ATCC 204305; experiment: Antifungal microdilution broth (EUCAST); format: cell-based; conditions: Aspergillus fumigatus, ATCC204305, read-out: MIC Aspergillus fumigatus
[19] = tested on: Mycobacterium kansasii DSM 44,162 (ATCC 12478); experiment: Antimycobacterial microdilution (resazurin) vs M. kansasii; format: cell-based; conditions: read-out: MIC M. kansasii
[20] = tested on: Lichtheimia corymbifera CCM 8077; experiment: Antifungal microdilution broth (EUCAST); format: cell-based; conditions: Lichtheimia corymbifera, CCM8077, read-out: MIC Lichtheimia corymbifera
[21] = tested on: Mycolicibacterium aurum DSM 43,999 (ATCC 23366); experiment: Antimycobacterial microdilution (resazurin) vs M. aurum; format: cell-based; conditions: Middlebrook 7H9, resazurin, read-out: MIC M. aurum
[22] = tested on: Mycobacterium tuberculosis H37Ra ITM-M006710 (ATCC 9431); experiment: Antimycobacterial microdilution (resazurin) vs Mtb H37Ra; format: cell-based

In the case of O=C(Nc1ccc2c(c1)B(O)OC2)c1cscn1 [Compound 16, N-(1-hydroxy-1,3-dihydrobenzo[c][1,2]oxaborol-6-yl)thiazole-4-carboxamide], the MIC ([1]; 24h incubation) is reported as greater than 500 µM, the MIC ([1]; 48h incubation) is reported as greater than 500 µM and the MIC ([2]; pH 6.6, MABA, Middlebrook 7H9 pH 6.6, recalculated from µg/mL, read-out: MIC Mtb H37Rv) is reported as 96.1 µM (≈ 25 µg/mL). It also gave an MIC ([3]; 24h incubation) greater than 500 µM, an MIC ([3]; 48h incubation) greater than 500 µM and an MIC ([4]; 24h incubation) greater than 500 µM. For the same compound, the MIC ([4]; 48h incubation) was greater than 500 µM, the MIC ([5]; 24h incubation) was greater than 500 µM and the MIC ([5]; 48h incubation) was greater than 500 µM. The MIC ([6]; 24h incubation) was greater than 500 µM, the MIC ([6]; 48h incubation) was greater than 500 µM and the MIC ([7]; 24h incubation) was 125 µM (≈ 32.5 µg/mL). The MIC ([7]; 48h incubation) was 125 µM (≈ 32.5 µg/mL), the MIC [8] was 30 µM (≈ 7.81 µg/mL) and the MIC ([9]; 24h incubation) was 500 µM (≈ 130 µg/mL). The MIC ([9]; 48h incubation) was greater than 500 µM, the MIC ([10]; 24 h) was 250 µM (≈ 65 µg/mL) and the MIC ([10]; 48 h) was 500 µM (≈ 130 µg/mL). For the same compound, the IC50 (HepG2 cell line) was greater than 1000 µM, the “MIC Escherichia coli” value ([11]; 48h incubation) was “no inhibition” and the MIC ([11]; 24h incubation) was 500 µM (≈ 130 µg/mL). The MIC ([11]; 48h incubation) was greater than 500 µM, the “MIC Klebsiella pneumoniae” value ([12]; 48h incubation) was “no inhibition” and the MIC ([12]; 24h incubation) was 500 µM (≈ 130 µg/mL). It also gave an MIC ([12]; 48h incubation) greater than 500 µM, an MIC ([13]; 24h incubation) greater than 500 µM and an MIC ([13]; 48h incubation) greater than 500 µM. For the same compound, the MIC ([14]; 72h incubation) was greater than 500 µM, the MIC ([14]; 120h incubation) was greater than 500 µM and the MIC ([15]; 24h incubation) was greater than 500 µM. The MIC ([15]; 48h incubation) was greater than 500 µM, the MIC ([16]; 24h incubation) was greater than 500 µM and the MIC ([16]; 48h incubation) was greater than 500 µM. For the same compound, the melting point was 225.7 to 227.9 °C, the MIC [17] was 240 µM (≈ 62.5 µg/mL) and the MIC ([18]; 24h incubation) was greater than 500 µM. For the same compound, the MIC ([18]; 48h incubation) was greater than 500 µM, the MIC ([19]; Middlebrook 7H9, resazurin) was 30 µM (≈ 7.81 µg/mL) and the MIC ([20]; 24h incubation) was greater than 500 µM. It also gave an MIC ([20]; 48h incubation) greater than 500 µM, an MIC [21] of 15 µM (≈ 3.91 µg/mL) and an MIC ([22]; Middlebrook 7H9, resazurin, recalculated from µg/mL, read-out: MIC Mtb H37Ra) of 120 µM (≈ 31.3 µg/mL).
O=C(Nc1ccc2c(c1)B(O)OC2)c1nc2ccccc2[nH]c1=O [Compound 18, N-(1-hydroxy-1,3-dihydrobenzo[c][1,2]oxaborol-6-yl)-3-oxo-3,4-dihydroquinoxaline-2-carboxamide] showed an MIC ([1]; 24h incubation) greater than 500 µM, an MIC ([1]; 48h incubation) greater than 500 µM and an MIC ([2]; pH 6.6, read-out: MIC Mtb H37Rv, MABA, Middlebrook 7H9 pH 6.6, recalculated from µg/mL) greater than 311 µM. It also gave an MIC ([3]; 24h incubation) greater than 125 µM, an MIC ([3]; 48h incubation) greater than 125 µM and an MIC ([4]; 24h incubation) greater than 500 µM. The MIC ([4]; 48h incubation) was greater than 500 µM, the MIC ([5]; 24h incubation) was greater than 125 µM and the MIC ([5]; 48h incubation) was greater than 125 µM. For the same compound, the MIC ([6]; 24h incubation) was greater than 125 µM, the MIC ([6]; 48h incubation) was greater than 125 µM and the MIC ([7]; 24h incubation) was greater than 500 µM. For the same compound, the MIC ([7]; 48h incubation) was greater than 500 µM, the MIC [8] was 24.3 µM (≈ 7.81 µg/mL) and the MIC ([9]; 24h incubation) was greater than 500 µM. The MIC ([9]; 48h incubation) was greater than 500 µM, the MIC ([10]; 24 h) was greater than 500 µM and the MIC ([10]; 48 h) was greater than 500 µM. It also gave an IC50 (HepG2 cell line) of 244 µM, an MIC ([11]; 24h incubation) greater than 500 µM and an MIC ([11]; 48h incubation) greater than 500 µM. It also gave an MIC ([12]; 24h incubation) greater than 500 µM, an MIC ([12]; 48h incubation) greater than 500 µM and an MIC ([13]; 24h incubation) greater than 500 µM. It also gave an MIC ([13]; 48h incubation) greater than 500 µM, an MIC ([14]; 72h incubation) greater than 125 µM and an MIC ([14]; 120h incubation) greater than 125 µM. The MIC ([15]; 24h incubation) was greater than 125 µM, the MIC ([15]; 48h incubation) was greater than 125 µM and the MIC ([16]; 24h incubation) was greater than 125 µM. The MIC ([16]; 48h incubation) was greater than 125 µM, the melting point was 348.9 to 350.2 °C (dec.) and the MIC [17] was 48.7 µM (≈ 15.6 µg/mL). The MIC ([18]; 24h incubation) was greater than 125 µM, the MIC ([18]; 48h incubation) was greater than 125 µM and the MIC [19] was greater than 1850 µM. For the same compound, the MIC ([20]; 24h incubation) was greater than 125 µM, the MIC ([20]; 48h incubation) was greater than 125 µM and the MIC [21] was 24.3 µM (≈ 7.81 µg/mL). It also gave an MIC ([22]; read-out: MIC Mtb H37Ra, Middlebrook 7H9, resazurin, recalculated from µg/mL) greater than 1850 µM.
